According to ChEMBL document CHEMBL3301361, “Experimental in vitro DMPK and physicochemical data on a set of publicly disclosed compounds”:
≈ marks a conversion by molar mass, not a printed value. Residues, ends and D or L forms follow the SMILES beside them.

Tests used:
in vitro [1] = details: human, plasma
in vitro [2] = details: human
in vitro [3] = details: SD, HW or BN, rat, plasma
physchem [4] = details: octan-1-ol/water
in vitro [5] = details: hepatocytes
in vitro [6] = details: Beagle, dog, plasma
in vitro [7] = details: human, hepatocytes
physchem [8] = details: pH 7.4 buffer

| Compound | fraction unbound at 5 h (in vitro [1]; PPB) | microsomal CLint (in vitro [2]; microsomes) | fraction unbound at 5 h (in vitro [3]) | logD (physchem [4]; pH 7.4, LogD7.4) | hepatocyte CLint (in vitro [5]) | fraction unbound at 5 h (in vitro [6]) | hepatocyte CLint (in vitro [7]) | microsomal CLint (in vitro [2]; liver microsomes) | solubility thermodynamic (physchem [8]) | fraction unbound at 5 h (in vitro [1]) | logD (physchem [4]; pH 7.4) |
| --- | --- | --- | --- | --- | --- | --- | --- | --- | --- | --- | --- |
| Cc1ccc(C(=O)c2ccc(CC(=O)O)n2C)cc1 [TOLMETIN] | 0.0028 | 4 µL/min/mg | 0.0287 | -1.02 | 7.33 µL/min/1e6 cells | 0.0477 |  |  |  |  |  |
| COc1ccc(CCN2C(=O)N(NS(C)(=O)=O)C[C@@H]2c2ccc(OC)cc2)cc1 | 0.0477 |  | 0.0191 |  |  | 0.0854 | 19.1 µL/min/1e6 cells |  |  |  |  |
| C[C@H](NC(=O)[C@@H](Cc1c[nH]c2ccccc12)NC(=O)[C@@H](N)Cc1c[nH]cn1)C(=O)N[C@@H](Cc1c[nH]c2ccccc12)C(=O)N[C@H](Cc1ccccc1)C(=O)N[C@@H](CCCCN)C(N)=O (HELM PEPTIDE1{H.[dW].A.W.[dF].K.[am]}$$$$V2.0) |  |  | 0.262 |  |  | 0.183 |  | 61.7 µL/min/mg |  |  |  |
| COc1cc(-n2cnc3cc(-c4ccc(Cl)cc4)sc3c2=O)ccc1OC[C@H](OP(=O)(O)O)C1CC1 [BMS-830216] | 0.0061 |  |  | -0.04 |  | 0.0084 | 12.3 µL/min/1e6 cells | < 3 µL/min/mg |  |  |  |
| C[C@H](CO)Nc1[nH]c(SCc2ccccc2F)nc2nc(=O)sc1-2 |  |  |  | 3 | 28 µL/min/1e6 cells | 0.0171 | 30.1 µL/min/1e6 cells | 3 µL/min/mg | 8.1 µM (≈ 2.97 µg/mL) |  |  |
| CCN(CC)CCN1C(=O)C(O)(c2ccccc2Cl)c2c1cc(C(N)=O)cc2C(F)(F)F (centres undefined) |  |  |  |  |  | 0.212 | 15.1 µL/min/1e6 cells |  |  |  |  |
| CCCc1nc2c(C)cc(-c3nc4ccccc4n3C)cc2n1Cc1ccc(-c2ccccc2C(=O)O)cc1 | 0.0077 |  | 0.0038 | 2.21 |  | 0.0175 | 3.98 µL/min/1e6 cells | < 3 µL/min/mg |  |  |  |
| Cc1ccc(S(=O)(=O)Nc2c(C(=O)N[C@@H](C)C(C)(C)C)c(C)nn2C2CCOCC2)cc1 | 0.208 |  | 0.166 |  | < 3 µL/min/1e6 cells | 0.529 |  | 7 µL/min/mg |  |  |  |
| Cc1cn([C@H]2CCCN([C@H](CC(C)C)c3ccc(C(=O)O)c(Oc4cccc(Cl)c4)c3)C2)c(=O)[nH]c1=O | 0.0274 |  | 0.0175 | 0.91 | 9.12 µL/min/1e6 cells | 0.0366 |  |  |  |  |  |
| CC(C)(N)C(=O)N[C@H](COCc1ccccc1)C(=O)N1CCC2(CC1)CN(S(C)(=O)=O)c1ccccc12 [IBUTAMOREN] | 0.232 |  | 0.253 | 1.4 |  | 0.212 | 14.4 µL/min/1e6 cells |  |  |  |  |
| CC(C)(N)C(=O)N[C@H](COCc1ccc(F)cc1F)C(=O)N1CCC2=NN(CC(F)(F)F)C(=O)[C@]2(Cc2ccccn2)C1 |  |  | 0.511 |  |  | 0.454 | 15.5 µL/min/1e6 cells |  |  |  |  |
| CC(C)Oc1ccc2c(=O)c(-c3ccccc3)coc2c1 [IPRIFLAVONE] | 0.0053 |  | 0.0056 | 4.07 | 110 µL/min/1e6 cells | 0.0051 |  |  | 2.8 µM (≈ 0.785 µg/mL) |  |  |
| CCCCNC(=O)c1ccc(Oc2ccc(CC(=O)O)cc2OC)c(NS(=O)(=O)c2ccc(Cl)cc2Cl)c1 | 0.002 | < 3 µL/min/mg | 0.0019 |  |  | 0.0171 |  |  |  |  |  |
| Cc1cn([C@H]2CCCN([C@H](CC(C)(C)C)c3ccc(C(=O)O)c(Oc4cccc(Br)c4)c3)C2)c(=O)[nH]c1=O | 0.0287 |  | 0.0149 | 1.09 | 49 µL/min/1e6 cells | 0.0268 |  |  |  |  |  |
| CC1=C(C)C(=O)C(C(CCCCCC(=O)O)c2ccccc2)=C(C)C1=O (centres undefined) [SERATRODAST] |  | 3 µL/min/mg |  | 2.48 | 85 µL/min/1e6 cells | 0.02 |  |  |  |  |  |
| COc1cc2c(cc1-c1c(C)noc1C)ncc1[nH]c(=O)n([C@H](C)c3ccccn3)c12 | 0.0234 | 7.59 µL/min/mg | 0.0374 | 3.15 |  | 0.105 |  |  |  |  |  |

| Compound | fraction unbound at 5 h (in vitro [1]; PPB) | microsomal CLint (in vitro [2]; microsomes) | fraction unbound at 5 h (in vitro [3]) | logD (physchem [4]; pH 7.4, LogD7.4) | hepatocyte CLint (in vitro [5]) | fraction unbound at 5 h (in vitro [6]) | hepatocyte CLint (in vitro [7]) | microsomal CLint (in vitro [2]; liver microsomes) | solubility thermodynamic (physchem [8]) | fraction unbound at 5 h (in vitro [1]) | logD (physchem [4]; pH 7.4) |
| --- | --- | --- | --- | --- | --- | --- | --- | --- | --- | --- | --- |
| CCCCC1=NC2(CCCC2)C(=O)N1Cc1ccc(-c2ccccc2-c2nnn[nH]2)cc1 [IRBESARTAN] |  | 17.8 µL/min/mg |  |  | 9.01 µL/min/1e6 cells | 0.0146 | 10.5 µL/min/1e6 cells |  | 891 µM (≈ 382 µg/mL) |  |  |
| O=C(O)COc1ccc(Cl)cc1CN1CCN(S(=O)(=O)Cc2ccccc2)CC1 | 0.0067 |  | 0.114 | 0.33 |  | 0.0343 | < 3 µL/min/1e6 cells |  |  |  |  |
| Cc1c(OC2CCN(CC3CCN([C@@](C)(Cc4ccc(F)cc4)C(=O)O)CC3)CC2)ccc(Cl)c1Cl |  |  | 0.0752 |  | < 3 µL/min/1e6 cells | 0.0568 |  | < 3 µL/min/mg |  |  |  |
| CC(C)(C)NC(=O)NCCN1CC(NC(=O)c2cc(Cl)cc(Cl)c2)C1 | 0.0928 |  | 0.101 |  |  | 0.0784 | 3.31 µL/min/1e6 cells |  |  |  |  |
| Cc1cn([C@H]2CCCN([C@H](C)c3ccc(C(=O)O)c(Oc4cccc(Cl)c4)c3)C2)c(=O)[nH]c1=O | 0.0156 |  | 0.0293 | -0.3 | 3.39 µL/min/1e6 cells | 0.101 |  |  |  |  |  |
| CCOC(=O)C1=C(C)NC(C)=C(C(=O)OC)C1c1cccc([N+](=O)[O-])c1 (centres undefined) [NITRENDIPINE] | 0.009 |  | 0.0077 |  | 75 µL/min/1e6 cells | 0.0108 |  | 85 µL/min/mg |  |  |  |
| COc1ccc(CCN2C(=O)N(NS(C)(=O)=O)C[C@H]2c2ccc(OC)cc2)cc1 | 0.0633 |  | 0.0568 |  |  | 0.089 | 21.9 µL/min/1e6 cells |  |  |  |  |
| C[C@H](CO)Nc1nc(SCc2ccco2)nc2[nH]c(=O)sc12 | 0.016 | 8.28 µL/min/mg |  | 2.21 | 61 µL/min/1e6 cells | 0.0274 |  |  |  |  |  |
| COCCOC(=O)C1=C(C)NC(C)=C(C(=O)OC(C)C)C1c1cccc([N+](=O)[O-])c1 (centres undefined) [NIMODIPINE] | 0.0183 |  | 0.0175 | 3.8 |  | 0.0116 |  |  | 3.1 µM (≈ 1.3 µg/mL) |  |  |
| C#CC[C@@H](C(=O)N[C@H](/C=C/C(=O)OCC)C[C@@H]1CCNC1=O)n1cccc(NC(=O)c2cc(C)on2)c1=O [IMOCITRELVIR] | 0.443 | 20.9 µL/min/mg |  | 1.75 | > 150 µL/min/1e6 cells | 0.535 |  |  |  |  |  |
| N#Cc1cccc(-c2cc(Cl)ccc2OCC(=O)O)c1 | 0.0075 | < 3 µL/min/mg | 0.0343 |  |  | 0.0234 |  |  |  |  |  |
| O=C(Nc1ccccc1F)N[C@H]1N=C(c2ccccc2)c2ccccc2NC1=O [RSV-604] |  |  | 0.0274 |  |  | 0.0307 |  |  | 2.6 µM (≈ 1.01 µg/mL) | 0.0366 | 4 |
| CC[C@H](CO)Nc1nc(SCc2ccccc2)nc2[nH]c(=O)sc12 | 0.0016 |  |  |  |  | 0.0053 | 10 µL/min/1e6 cells |  |  |  |  |
| CC(C)(C)NC(=O)NCCN1CCN(CC(=O)NC23CC4CC(CC(C4)C2)C3)CC1 |  |  |  |  |  | 0.24 | 33.9 µL/min/1e6 cells |  |  |  |  |
| CCOc1cc2ncc(C(N)=O)c(Nc3ccc(C)cc3F)c2cc1N1CCN(C)CC1 |  | 26 µL/min/mg | 0.151 |  | 12 µL/min/1e6 cells | 0.183 |  |  |  |  |  |
